# Test results from ChEMBL document CHEMBL2440076, “New triarylpyrazoles as broad-spectrum anticancer agents: design, synthesis, and biological evaluation” (Eur J Med Chem, 2013).
# Key:
# Type in all cases: functional
# CAKI-1 = assay: Growth inhibition of human CAKI-1 cells assessed as cell growth at 5X10'-8 M after 48 hrs by sulforhodamine B assay; conditions: CAKI-1, 48 h, read-out: Activity
# SR [1] = assay: Growth inhibition of human SR cells assessed as cell growth at 5X10'-8 M after 48 hrs by sulforhodamine B assay; conditions: read-out: Activity
# PC-3 [2] = assay: Growth inhibition of human PC3 cells assessed as cell growth at 5X10'-6 M after 48 hrs by sulforhodamine B assay; conditions: PC-3, 48 h, read-out: Activity
# NCI-H23 [3] = assay: Growth inhibition of human NCI-H23 cells assessed as cell growth at 5X10'-6 M after 48 hrs by sulforhodamine B assay; conditions: NCI-H23, 48 h, read-out: Activity
# SR [4] = assay: Growth inhibition of human SR cells assessed as cell growth at 3X10'-5 M after 48 hrs by sulforhodamine B assay; conditions: read-out: Activity
# UO-31 = assay: Growth inhibition of human UO31 cells assessed as cell growth at 3X10'-9 M after 48 hrs by sulforhodamine B assay; conditions: UO-31, 48 h, read-out: Activity
# HCT-15 [5] = assay: Growth inhibition of human HCT15 cells assessed as cell growth at 3X10'-6 M after 48 hrs by sulforhodamine B assay; conditions: HCT-15, 48 h, read-out: Activity
# SK-MEL-28 = assay: Growth inhibition of human SK-MEL-28 cells assessed as cell growth at 3X10'-6 M after 48 hrs by sulforhodamine B assay; conditions: SK-MEL-28, 48 h, read-out: Activity
# UACC-62 = assay: Growth inhibition of human UACC62 cells assessed as cell growth at 3X10'-9 M after 48 hrs by sulforhodamine B assay; conditions: UACC-62, 48 h, read-out: Activity
# K562 = assay: Growth inhibition of human K562 cells assessed as cell growth at 3X10'-5 M after 48 hrs by sulforhodamine B assay; conditions: K562, 48 h, read-out: Activity
# T47D = assay: Growth inhibition of human T47D cells assessed as cell growth at 3X10'-7 M after 48 hrs by sulforhodamine B assay; conditions: read-out: Activity
# SK-MEL-2 = assay: Growth inhibition of human SK-MEL-2 cells assessed as cell growth at 3X10'-6 M after 48 hrs by sulforhodamine B assay; conditions: SK-MEL-2, 48 h, read-out: Activity
# SNB-19 = assay: Growth inhibition of human SNB19 cells assessed as cell growth at 3X10'-5 M after 48 hrs by sulforhodamine B assay; conditions: SNB-19, 48 h, read-out: Activity
# HCT-15 [6] = assay: Growth inhibition of human HCT15 cells assessed as cell growth at 3X10'-5 M after 48 hrs by sulforhodamine B assay; conditions: HCT-15, 48 h, read-out: Activity
# MOLT-4 = assay: Growth inhibition of human MOLT4 cells assessed as cell growth at 3X10'-7 M after 48 hrs by sulforhodamine B assay; conditions: MOLT-4, 48 h, read-out: Activity
# MDA-MB-468 [7] = assay: Growth inhibition of human MDA-MB-468 cells assessed as cell growth at 3X10'-6 M after 48 hrs by sulforhodamine B assay; conditions: MDA-MB-468, 48 h, read-out: Activity
# SF-268 = assay: Growth inhibition of human SF268 cells assessed as cell growth at 3X10'-6 M after 48 hrs by sulforhodamine B assay; conditions: SF-268, 48 h, read-out: Activity
# TK-10 = assay: Growth inhibition of human TK10 cells assessed as cell growth at 3X10'-7 M after 48 hrs by sulforhodamine B assay; conditions: TK-10, 48 h, read-out: Activity
# HT-29 = assay: Growth inhibition of human HT-29 cells assessed as cell growth at 3X10'-9 M after 48 hrs by sulforhodamine B assay; conditions: HT-29, 48 h, read-out: Activity
# HOP-92 = assay: Growth inhibition of human HOP92 cells assessed as cell growth at 3X10'-5 M after 48 hrs by sulforhodamine B assay; conditions: HOP-92, 48 h, read-out: Activity
# M14 = assay: Growth inhibition of human M14 cells assessed as cell growth at 3X10'-8 M after 48 hrs by sulforhodamine B assay; conditions: M14, 48 h, read-out: Activity
# SF-295 = assay: Growth inhibition of human SF295 cells assessed as cell growth at 3X10'-7 M after 48 hrs by sulforhodamine B assay; conditions: SF-295, 48 h, read-out: Activity
# MDA-MB-231 = assay: Growth inhibition of human MDA-MB-231 cells assessed as cell growth at 3X10'-6 M after 48 hrs by sulforhodamine B assay; conditions: MDA-MB-231, 48 h, read-out: Activity
# SR [8] = assay: Growth inhibition of human SR cells assessed as cell growth at 3X10'-9 M after 48 hrs by sulforhodamine B assay; conditions: read-out: Activity
# UACC-257 = assay: Growth inhibition of human UACC257 cells assessed as cell growth at 3X10'-6 M after 48 hrs by sulforhodamine B assay; conditions: UACC-257, 48 h, read-out: Activity
# HCT-116 = assay: Growth inhibition of human HCT116 cells assessed as cell growth at 3X10'-7 M after 48 hrs by sulforhodamine B assay; conditions: HCT-116, 48 h, read-out: Activity
# MDA-MB-468 [9] = assay: Growth inhibition of human MDA-MB-468 cells assessed as cell growth at 3X10'-8 M after 48 hrs by sulforhodamine B assay; conditions: MDA-MB-468, 48 h, read-out: Activity
# NCI-H460 [10] = assay: Growth inhibition of human NCI-H460 cells assessed as cell growth at 3X10'-9 M after 48 hrs by sulforhodamine B assay; conditions: NCI-H460, 48 h, read-out: Activity
# NCI-H23 [11] = assay: Growth inhibition of human NCI-H23 cells assessed as cell growth at 3X10'-6 M after 48 hrs by sulforhodamine B assay; conditions: NCI-H23, 48 h, read-out: Activity
# HOP-62 = assay: Growth inhibition of human HOP62 cells assessed as cell growth at 3X10'-6 M after 48 hrs by sulforhodamine B assay; conditions: HOP-62, 48 h, read-out: Activity
# [12] = Growth inhibition of human HCC2998 cells assessed as cell growth at 3X10'-8 M after 48 hrs by sulforhodamine B assay; conditions: HCC 2998, 48 h, read-out: Activity
# SN12C = assay: Growth inhibition of human SN12C cells assessed as cell growth at 3X10'-9 M after 48 hrs by sulforhodamine B assay; conditions: read-out: Activity
# [13] = Growth inhibition of human HCC2998 cells assessed as cell growth at 3X10'-9 M after 48 hrs by sulforhodamine B assay; conditions: HCC 2998, 48 h, read-out: Activity
# PC-3 [14] = assay: Growth inhibition of human PC3 cells assessed as cell growth at 3X10'-9 M after 48 hrs by sulforhodamine B assay; conditions: PC-3, 48 h, read-out: Activity
# HL-60(TB) = assay: Growth inhibition of human HL-60(TB) cells assessed as cell growth at 3X10'-6 M after 48 hrs by sulforhodamine B assay; conditions: HL-60, 48 h, read-out: Activity
# NCI-H460 [15] = assay: Growth inhibition of human NCI-H460 cells assessed as cell growth at 5X10'-8 M after 48 hrs by sulforhodamine B assay; conditions: NCI-H460, 48 h, read-out: Activity
SMILES,growth at 0.05 µM (CAKI-1) [%],growth at 0.05 µM (SR [1]) [%],growth at 5 µM (PC-3 [2]) [%],growth at 5 µM (NCI-H23 [3]) [%],growth at 30 µM (SR [4]) [%],growth at 0.003 µM (UO-31) [%],growth at 3 µM (HCT-15 [5]) [%],growth at 3 µM (SK-MEL-28) [%],growth at 0.003 µM (UACC-62) [%],growth at 30 µM (K562) [%],growth at 0.3 µM (T47D) [%],growth at 3 µM (SK-MEL-2) [%],growth at 30 µM (SNB-19) [%],growth at 30 µM (HCT-15 [6]) [%],growth at 0.3 µM (MOLT-4) [%],growth at 3 µM (MDA-MB-468 [7]) [%],growth at 3 µM (SF-268) [%],growth at 0.3 µM (TK-10) [%],growth at 0.003 µM (HT-29) [%],growth at 0.05 µM (NCI-H460 [15]) [%],other results
O=C(Nc1cccc(-n2cc(-c3ccncc3)c(-c3ccc(Cl)c(O)c3)n2)c1)c1ccc(N2CCOCC2)c(C(F)(F)F)c1,99,99,29,46,,,,,,,,,,,,,,,,,
O=C(Nc1cccc(-n2cc(-c3ccncc3)c(-c3ccc(Cl)c(O)c3)n2)c1)Nc1cccc(C(F)(F)F)c1,,,,,-9,89,27,55,98,6,97,35,20,6,97,17,37,107,99,,growth at 30 µM (HOP-92): -33%; growth at 0.03 µM (M14): 98%; growth at 0.3 µM (SF-295): 88%; growth at 3 µM (MDA-MB-231): 52%; growth at 0.003 µM (SR [8]): 94%; growth at 3 µM (UACC-257): 60%; growth at 0.3 µM (HCT-116): 98%; growth at 0.03 µM (MDA-MB-468 [9]): 89%; growth at 0.003 µM (NCI-H460 [10]): 99%; growth at 3 µM (NCI-H23 [11]): 36%; growth at 3 µM (HOP-62): 70%; growth at 0.03 µM [12]: 97%; growth at 0.003 µM (SN12C): 98%; growth at 0.003 µM [13]: 97%; growth at 0.003 µM (PC-3 [14]): 95%; growth at 3 µM (HL-60(TB)): 41%
COc1cc(-c2nn(-c3cccc(NC(=O)Nc4ccc(Cl)c(C(F)(F)F)c4)c3)cc2-c2ccncc2)ccc1Cl,,,,,-12,92,18,16,95,1,95,-12,-23,-35,90,6,25,101,105,,growth at 30 µM (HOP-92): -46%; growth at 0.03 µM (M14): 109%; growth at 0.3 µM (SF-295): 93%; growth at 3 µM (MDA-MB-231): -9%; growth at 0.003 µM (SR [8]): 105%; growth at 3 µM (UACC-257): 20%; growth at 0.3 µM (HCT-116): 99%; growth at 0.03 µM (MDA-MB-468 [9]): 90%; growth at 0.003 µM (NCI-H460 [10]): 103%; growth at 3 µM (NCI-H23 [11]): 11%; growth at 3 µM (HOP-62): 22%; growth at 0.03 µM [12]: 107%; growth at 0.003 µM (SN12C): 95%; growth at 0.003 µM [13]: 102%; growth at 0.003 µM (PC-3 [14]): 95%; growth at 3 µM (HL-60(TB)): 2%
O=C(Nc1cccc(-n2cc(-c3ccncc3)c(-c3ccc(Cl)c(O)c3)n2)c1)Nc1cc(C(F)(F)F)cc(C(F)(F)F)c1,92,102,-3,-18,,,,,,,,,,,,,,,,101,
COc1cc(-c2nn(-c3cccc(NC(=O)c4cccc(C(F)(F)F)c4)c3)cc2-c2ccncc2)ccc1Cl,98,98,17,13,,,,,,,,,,,,,,,,100,
COc1cc(-c2nn(-c3cccc(NC(=O)Nc4cc(C(F)(F)F)cc(C(F)(F)F)c4)c3)cc2-c2ccncc2)ccc1Cl,95,103,-20,-18,,,,,,,,,,,,,,,,100,
COc1cc(-c2nn(-c3cccc(NC(=O)Nc4ccc(Cl)c(Cl)c4)c3)cc2-c2ccncc2)ccc1Cl,93,105,-17,,,,,,,,,,,,,,,,,102,
COc1cc(-c2nn(-c3cccc(NC(=O)Nc4cccc(C(F)(F)F)c4)c3)cc2-c2ccncc2)ccc1Cl,98,93,-19,-18,,,,,,,,,,,,,,,,102,
O=C(Nc1cccc(-n2cc(-c3ccncc3)c(-c3ccc(Cl)c(O)c3)n2)c1)Nc1ccc(Cl)c(Cl)c1,,,,,-5,86,14,25,99,4,100,-11,18,-1,101,2,23,112,100,,growth at 30 µM (HOP-92): -31%; growth at 0.03 µM (M14): 94%; growth at 3 µM (MDA-MB-231): 15%; growth at 0.003 µM (SR [8]): 91%; growth at 3 µM (UACC-257): -1%; growth at 0.3 µM (HCT-116): 99%; growth at 0.03 µM (MDA-MB-468 [9]): 90%; growth at 0.003 µM (NCI-H460 [10]): 108%; growth at 3 µM (NCI-H23 [11]): 11%; growth at 3 µM (HOP-62): 35%; growth at 0.03 µM [12]: 104%; growth at 0.003 µM (SN12C): 93%; growth at 0.003 µM [13]: 95%; growth at 0.003 µM (PC-3 [14]): 103%; growth at 3 µM (HL-60(TB)): 16%
